Calls of active or inactive are those of the source. No cut-off for these calls is given here.
Legend:
T-cell [1] = test: Effect on proliferation of Balb/C mouse T cells at 5 uM after 72 hrs by MTT assay; assay type: functional, cell-based
YAC-1 [2] = test: Immunopotentiating activity in Balb/C mouse NK cells assessed as induction of killing activity against YAC-1 cells at 50 uM after 4 hrs by MTT assay; assay type: functional
Prunus dulcis = test: Inhibition of almonds beta-glucosidase using D-(-)salicin as substrate at 100 uM preincubated for 10 mins prior substrate addition measured after 10 mins by UV-Vis spectrophotometry
T-cell [3] = test: Effect on proliferation of Balb/C mouse T cells at 50 uM after 72 hrs by MTT assay; assay type: functional, cell-based
Saccharomyces cerevisiae = test: Inhibition of yeast alpha-glucosidase using PNPG as substrate at 100 uM preincubated for 10 mins prior substrate addition measured after 10 mins by UV-Vis spectrophotometry
Bacillaceae = test: Inhibition of Bacillaceae alpha-amylase using starch as substrate at 100 uM preincubated for 10 mins prior substrate addition measured after 10 mins by UV-Vis spectrophotometry
YAC-1 [4] = test: Immunopotentiating activity in Balb/C mouse NK cells assessed as induction of killing activity against YAC-1 cells at 5 uM after 4 hrs by MTT assay; assay type: functional

Row | SMILES | Activity (T-cell [1]) | Activity (YAC-1 [2]) | inhibition (Prunus dulcis) | Activity (T-cell [3]) | inhibition (Saccharomyces cerevisiae) | inhibition (Bacillaceae) | Activity (YAC-1 [4])
1 | O=C1c2ccccc2S[C@@H]2[C@H](O)[C@H](O)[C@H](O)CN12 | inactive | inactive | inactive | inactive | inactive | inactive | inactive
2 | O=C1CCS[C@@H]2[C@H](O)[C@H](O)[C@H](O)CN12 | inactive | inactive | inactive | inactive | inactive | inactive | inactive
3 | O=C1c2ccccc2S[C@H]2[C@H](O)[C@H](O)[C@H](O)CN12 | inactive | inactive | inactive | inactive | inactive | inactive | inactive
4 | O=C1CCS[C@H]2[C@@H](O)[C@@H](O)[C@H](O)CN12 | inactive | 45% | inactive | inactive | inactive | inactive | 69%
5 | O=C1c2ccccc2S[C@H]2[C@@H](O)[C@@H](O)[C@H](O)CN12 | inactive | 73% | inactive | inactive | inactive | inactive | 46%
6 | O=C1c2cccnc2S[C@@H]2[C@H](O)[C@H](O)[C@H](O)CN12 | inactive | 71% | inactive | inactive | inactive | inactive | 45%
7 | O=C1c2ccccc2S[C@@H]2[C@@H](O)[C@@H](O)[C@H](O)CN12 | inactive | inactive | inactive | inactive | inactive | inactive | inactive
8 | O=C1c2cccnc2S[C@@H]2[C@@H](O)[C@@H](O)[C@H](O)CN12 | inactive | 81% | 19% | inactive | inactive | inactive | 55%
9 | O=C1CCS[C@@H]2[C@@H](O)[C@@H](O)[C@H](O)CN12 | inactive | inactive | inactive | inactive | inactive | inactive | inactive
10 | O=C1CS[C@H]2[C@H](O)[C@H](O)[C@H](O)CN12 | inactive | inactive | 23% | inactive | inactive | inactive | inactive
11 | O=C1CS[C@H]2[C@@H](O)[C@@H](O)[C@H](O)CN12 | inactive | 93% | 19% | inactive | inactive | inactive | 72%
12 | O=C1CS[C@@H]2[C@@H](O)[C@@H](O)[C@H](O)CN12 | inactive | inactive | inactive | inactive | inactive | inactive | inactive
13 | O=C1c2cccnc2S[C@H]2[C@H](O)[C@H](O)[C@H](O)CN12 | inactive | inactive | inactive | inactive | inactive | inactive | inactive
14 | O=C1c2cccnc2S[C@H]2[C@@H](O)[C@@H](O)[C@H](O)CN12 | inactive | 97% | 35% | inactive | inactive | inactive | 67%
15 | O=C1CS[C@@H]2[C@H](O)[C@H](O)[C@H](O)CN12 | inactive | 87% | inactive | inactive | inactive | inactive | 70%
16 | O=C1CCS[C@H]2[C@H](O)[C@H](O)[C@H](O)CN12 | inactive | inactive | 18% | inactive | inactive | inactive | inactive
